Laboratory results: patent US7482149B2 (priority 2003, dated 2009)
Where two headings read alike, the source gives them in different places.

Assays:
SARS-CoV [1] = assay type: cell-based
HIV = conditions: cited from earlier work
Cytomegalovirus = conditions: cited from earlier work
Influenza virus = conditions: cited from earlier work
Herpes simplex mutants = conditions: cited from earlier work
[2] = test system: HIV and other retroviruses; conditions: cited from earlier work
Herpes and poxviruses = conditions: cited from earlier work
SARS-CoV [3] = conditions: ribavirin concentrations that inhibit other sensitive viruses; preliminary; cited from earlier work
[4] = test system: Herpes simplex virus and varicella-zoster virus; conditions: cited from earlier work
[5] = complete (100%) inhibition of CPE up to highest concentration tested, 10,000 PFU/well, MOI 0.5, Vero E6

For NC12CC3CC(CC(C3)C1)C2 [Amantadine], which “Inhibition of Cytopathic Effect” value (SARS-CoV [1]) is on record?
The value was “No”.

With Cc1cn([C@H]2C[C@H](N=[N+]=[N-])[C@@H](CO)O2)c(=O)[nH]c1=O [Zidovudine] as the compound, how does the “Inhibition of Cytopathic Effect” value (SARS-CoV [1]; [5]) read?
The value was “No”.

And the IC50 (HIV)?
Its IC50 is 0.003 to 0.013 µg/mL.

What does the source list for Nc1nc(O)c2ncn(COC(CO)CO)c2n1 [Cymevene, Ganciclovir]?
Inhibition of Cytopathic Effect (SARS-CoV [1]): No; IC50 (Cytomegalovirus): 0.02 to 3.48 µg/mL

Which results are given for CC(=O)N[C@H]1[C@H]([C@H](O)[C@H](O)CO)OC(C(=O)O)=C[C@@H]1N=C(N)N [Zanamivir]?
Inhibition of Cytopathic Effect (SARS-CoV [1]): No; IC50 (Influenza virus; read-out: IC50): 5 to 16000 nM

What does the source list for O=C(O)P(=O)(O)O [Foscarnet]?
Inhibition of Cytopathic Effect (SARS-CoV [1]): No; IC50 (Cytomegalovirus; read-out: IC50): 50000 to 800000 nM; IC50 (Herpes simplex mutants): 5000 to 443000 nM

For NC(=O)c1ncn([C@@H]2O[C@H](CO)[C@@H](O)[C@H]2O)n1 [Ribavirin], which “concentrations showing inhibitory activity” value (SARS-CoV [1]; all three viral loads) is on record?
Its value is 0.5 to 5 mg/mL.

What about the “Inhibition of Cytopathic Effect” value (SARS-CoV [1]; [5]) of the same compound?
The value was “Yes”.

And the “Complete inhibition of cytopathic effect (CIA100)” value (“Complete inhibition” for short) (SARS-CoV [1]; virus load 100 PFU/well)?
The value was 1,000 μg/mL.

And the “Complete inhibition” value (SARS-CoV [1]; virus load 1,000 PFU/well)?
The value was 10,000 μg/mL.

What about the “Complete inhibition” value (SARS-CoV [1]; virus load 10,000 PFU/well) of the same compound?
The value was 5,000 μg/mL.

What about the “Complete inhibition” value (SARS-CoV [1]; virus load 10,000 PFU/well, listed as Ribavarin) of the same compound?
The value was 10,000 μg/mL.

And the cytotoxicity (Vero E6 cells)?
Its cytotoxicity is “slight cytotoxicity”.

And the “concentrations at which cytotoxic effects were observed” value (Vero E6 cells; African green monkey)?
The value was 200 to 1000 µg/mL.

What about the IC50 (Influenza virus) of the same compound?
The IC50 was 1 to 25 µg/mL.

And the IC50 [2]?
Its IC50 is 25 to 100 µg/mL.

What about the MIC (Herpes and poxviruses) of the same compound?
The MIC was 3.2 to 50 µg/mL.

And the “inhibition of replication or cell-to-cell spread of the SARS-CoV” value (SARS-CoV [3])?
The value was “do not inhibit”.

For Cc1c(O)cccc1C(=O)N[C@@H](CSc1ccccc1)[C@H](O)CN1C[C@H]2CCCC[C@H]2C[C@H]1C(=O)NC(C)(C)C [Nelfinavir], which “Inhibition of Cytopathic Effect” value (SARS-CoV [1]) is on record?
The value was “No”.

And the EC95 (HIV)?
The EC95 was 7 to 196 nM.

With Interferon α2b as the compound, how does the “Inhibition of Cytopathic Effect” value (SARS-CoV [1]) read?
The value was “No”.

For Nc1nc2c(ncn2COCCO)c(=O)[nH]1 [Acyclovir], which “Inhibition of Cytopathic Effect” value (SARS-CoV [1]) is on record?
The value was “No”.

And the IC50 [4]?
The IC50 was 0.01 to 13.5 µg/mL.

Which “Inhibition of Cytopathic Effect” value (SARS-CoV [1]; [5]) does the source give for CC(C)(C)NC(=O)[C@@H]1CN(Cc2cccnc2)CCN1C[C@@H](O)C[C@@H](Cc1ccccc1)C(=O)N[C@H]1c2ccccc2C[C@H]1O [Indinavir] here?
The value was “No”.

And the IC50 (HIV; read-out: IC50)?
Its IC50 is 25 to 100 nM.

Which results are given for CC(C)(C)NC(=O)[C@@H]1C[C@@H]2CCCC[C@@H]2CN1C[C@@H](O)[C@H](Cc1ccccc1)NC(=O)[C@H](CC(N)=O)NC(=O)c1ccc2ccccc2n1 [Saquinavir]?
Inhibition of Cytopathic Effect (SARS-CoV [1]): No; IC50 (HIV; read-out: IC50): 1 to 30 nM

Which “Inhibition of Cytopathic Effect” value (SARS-CoV [1]) does the source give for CCOC(=O)C1=C[C@@H](OC(CC)CC)[C@H](NC(C)=O)[C@@H](N)C1 [Oseltamivir] here?
Its value is “No”.
